Where two headings read alike, the source gives them in different places.
What was measured:
TTK = molecular target: T1, TTK (Homo sapiens, UniProt P33981); experiment: TTK assay: screening of TTK kinase activity suppressing action using p38 MAPK peptide; type: biochemical; conditions: read-out: TTK IC50
T1 sequence (P33981 1-857): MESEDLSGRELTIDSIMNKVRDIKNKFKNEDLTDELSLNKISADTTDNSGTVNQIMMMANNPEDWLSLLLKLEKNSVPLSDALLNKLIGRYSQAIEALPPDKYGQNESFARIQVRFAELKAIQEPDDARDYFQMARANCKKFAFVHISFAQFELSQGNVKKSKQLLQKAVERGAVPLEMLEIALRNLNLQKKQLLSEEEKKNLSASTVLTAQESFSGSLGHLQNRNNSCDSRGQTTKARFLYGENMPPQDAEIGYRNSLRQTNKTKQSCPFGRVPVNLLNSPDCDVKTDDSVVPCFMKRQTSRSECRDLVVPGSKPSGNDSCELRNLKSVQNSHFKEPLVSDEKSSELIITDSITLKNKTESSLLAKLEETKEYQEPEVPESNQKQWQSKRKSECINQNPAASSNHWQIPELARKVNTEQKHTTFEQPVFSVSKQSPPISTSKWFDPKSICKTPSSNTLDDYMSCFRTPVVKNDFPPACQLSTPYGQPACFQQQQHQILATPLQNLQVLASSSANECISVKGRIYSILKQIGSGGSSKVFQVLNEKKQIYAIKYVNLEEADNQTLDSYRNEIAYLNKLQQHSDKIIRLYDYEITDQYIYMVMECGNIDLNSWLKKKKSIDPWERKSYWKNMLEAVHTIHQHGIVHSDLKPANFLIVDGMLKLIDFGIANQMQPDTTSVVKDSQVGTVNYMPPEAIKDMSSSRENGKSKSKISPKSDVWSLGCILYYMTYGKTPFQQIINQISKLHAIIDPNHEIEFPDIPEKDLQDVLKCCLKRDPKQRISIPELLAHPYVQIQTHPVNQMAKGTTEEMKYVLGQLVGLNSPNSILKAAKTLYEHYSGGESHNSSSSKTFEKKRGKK
Procedure, shortened: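 TTK (4 μg/ml in enzyme solution) mixed with p38 MAPK peptide and ATP (each 60 μM in substrate solution) in Tris-HCl pH 7.5 with MgCl2, DTT, Na3VO4, β-glycerophosphate, BSA. Reaction aliquot captured on NeutrAvidin plate, detected with Eu-labelled anti-mouse IgG by time-resolved fluorescence; inhibition relative to no-compound signal.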

A549 = A549 assay: screening of cancer cell growth inhibiting compound; type: cell-based; conditions: Homo sapiens, A549 cells, read-out: A549 IC50
Procedure, shortened: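 A549 cells (1×10^4/ml) in D-MEM with 10% FBS were pre-incubated one day at 37 °C, then exposed to compound dilutions for three further days. Viable cell number read by WST-8 (1–4 hours), absorbance 450 nm (reference 620 nm); inhibition calculated relative to untreated wells.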

Row | IC50 (TTK; p38 MAPK peptide substrate) | IC50 (A549; 72 h, three days, WST-8) | IC50 (TTK) | IC50 (A549; values given as IC50 intervals) | SMILES
1 | 13.9 nM | 1000 to 10000 nM |  |  | CC(=O)NCC1CN(c2cc(NCC3CCOCC3)c3ncc(-c4ccc(C(=O)NC5CC5)cc4)n3n2)CCO1 (stereo not drawn) [Example 2-48]
2 | 6.2 nM | 50 to 500 nM |  |  | COCCN(c1cc(NCC2CCOCC2)c2ncc(-c3ccc(C(=O)NC4CC4)cc3)n2n1)C1CCCC1 [Example 2-29]
3 | 2.9 nM | ≤ 50 nM |  |  | CCC(C)(C)Nc1cc(NCC2CCOCC2)c2ncc(-c3ccc(C(=O)NC4CC4)cc3)n2n1 [Example 2-68]
4 |  |  | 2.8 nM | 50 to 500 nM | Cc1cc(-c2cnc3c(NCC4CCOCC4)cc(NC4CCCC4)nn23)ccc1C(=O)NC1CC1 [Example 2-232]
5 |  |  | 145 nM | 1000 to 10000 nM | O=C(NC1CC1)c1ccc(-c2nnc3c(NCC4CCOCC4)cc(NC4CCCC4)nn23)cc1 [Example 3-3, 4-(6-(Cyclopentylamino)-8-((tetrahydro-2H-pyran-4-yl)methylamino)-[1,2,4]triazolo[4,3-b]pyridazin-3-yl)-N-cyclopropylbenzamide]
6 | 1.9 nM | ≤ 50 nM |  |  | O=C(NC1CC1)c1ccc(-c2cnc3c(NCC4CCOCC4)cc(NC45CC6CC(CC(C6)C4)C5)nn23)cc1 [Example 2-64]
7 | 7.4 nM | 50 to 500 nM |  |  | O=C(NC1CC1)c1ccc(-c2cnc3c(NCC4CCOCC4)cc(NC4CC=CC4)nn23)cc1 [Example 2-54]
8 | 3.3 nM | 50 to 500 nM |  |  | O=C(NC1CC1)c1ccc(-c2cnc3c(NCC4CCOCC4)cc(Oc4ccc(Cl)cc4)nn23)cc1 [Example 2-93]
9 |  |  | 5.7 nM | 500 to 1000 nM | COc1cc(-c2cnc3c(NCC4CCOCC4)cc(NC4CCCC4)nn23)ccc1C(=O)NC1CC1 [Example 2-233]
10 | 8.6 nM | 50 to 500 nM |  |  | O=C(NC1CC1)c1ccc(-c2cnc3c(NCC4CCCCC4)cc(NC4CCCCC4)nn23)cc1 [Example 2-125]
11 | 25.7 nM | 50 to 500 nM |  |  | CN1CCN(c2cc(NCC3CCOCC3)c3ncc(-c4ccc(C(=O)NC5CC5)cc4)n3n2)CC1 [Example 2-15]
12 | 8.3 nM | 50 to 500 nM |  |  | N#Cc1ccc(-c2cn3c(-c4ccc(C(=O)NC5CC5)cc4)cnc3c(NCC(F)F)n2)cc1 [Example 1-236]
13 | 2.2 nM | ≤ 50 nM |  |  | O=C(NC1CC1)c1ccc(-c2cnc3c(NCC4CCOCC4)cc(Oc4cc(F)ccc4O)nn23)cc1 [Example 2-118]
14 |  |  | 20.3 nM | 500 to 1000 nM | COc1cc(NCC2CCOCC2)c2ncc(-c3ccc(C(=O)NC4CC4)cc3)n2n1 [Example 2-172]
15 | 17.8 nM | 500 to 1000 nM |  |  | O=C(NC1CC1)c1ccc(-c2cnc3c(NCC4CCOCC4)cc(N4CCOC(CO)C4)nn23)cc1 (stereo not drawn) [Example 2-49]
16 | 5.6 nM | 500 to 1000 nM |  |  | CC(C)ONc1cc(NC2CCCCC2)nn2c(-c3ccc(C(=O)NC4CC4)cc3)cnc12 [Example 2-161]
17 | 2.9 nM | 50 to 500 nM |  |  | O=C(NC1CC1)c1ccc(-c2cnc3c(NCc4cncs4)cc(NC4CCCCC4)nn23)cc1 [Example 2-147]
18 | 3.4 nM | 50 to 500 nM |  |  | O=C(NC1CC1)c1ccc(-c2cnc3c(NCc4ccoc4)cc(NC4CCCCC4)nn23)cc1 [Example 2-157]
19 |  |  | 3.9 nM | ≤ 50 nM | CC(C)(Nc1cc(NCC2CCOCC2)c2ncc(-c3ccc(C(=O)NC4CC4)c(Cl)c3)n2n1)C(F)(F)F [Example 2-220]
20 | 9.5 nM | 50 to 500 nM |  |  | N#Cc1ccc(-c2cn3c(-c4ccc(C(=O)NC5CC5)cc4)cnc3c(NCCC3CCOCC3)n2)cc1 [Example 1-221]
21 | 3 nM | 50 to 500 nM |  |  | Cc1cccc(Oc2cc(NCC3CCOCC3)c3ncc(-c4ccc(C(=O)NC5CC5)cc4)n3n2)c1 [Example 2-102]

Row | IC50 (TTK; p38 MAPK peptide substrate) | IC50 (A549; 72 h, three days, WST-8) | IC50 (TTK) | IC50 (A549; values given as IC50 intervals) | SMILES
22 | 5.5 nM | 50 to 500 nM |  |  | CCCC(C)Nc1cc(NCC2CCOCC2)c2ncc(-c3ccc(C(=O)NC4CC4)cc3)n2n1 (stereo not drawn) [Example 2-58]
23 | 7.4 nM | 50 to 500 nM |  |  | O=C(NC1CC1)c1ccc(-c2cnc3c(NCC4CCC4)cc(NC4CCCCC4)nn23)cc1 [Example 2-128]
24 | 3.5 nM | 50 to 500 nM |  |  | O=C(NC1CC1)c1ccc(-c2cnc3c(NCC4CCOCC4)cc(NC4C5CC6CC(C5)CC4C6)nn23)cc1 (stereo not drawn) [Example 2-73]
25 | 4.5 nM | ≤ 50 nM |  |  | O=C(NC1CC1)c1ccc(-c2cnc3c(NCC4CCOCC4)cc(NC4CC5CCCC(C5)C4)nn23)cc1 (stereo not drawn) [Example 2-38]
26 | 13.4 nM | 50 to 500 nM |  |  | O=C(NC1CC1)c1ccc(-c2cnc3c(NCC4CCOCC4)cc(N4CCC(C(F)(F)F)CC4)nn23)cc1 [Example 2-51]
27 | 5.4 nM | 500 to 1000 nM |  |  | CC(C)CN(CC1CC1)c1cc(NCC2CCOCC2)c2ncc(-c3ccc(C(=O)NC4CC4)cc3)n2n1 [Example 2-33]
28 | 48.9 nM | 1000 to 10000 nM |  |  | N#Cc1ccc(-c2cn3c(-c4ccc(C(=O)NC5CC5)cc4)cnc3c(NCCOCCO)n2)cc1 [Example 1-217]
29 | 6 nM | 50 to 500 nM |  |  | CCN(c1cc(NCC2CCOCC2)c2ncc(-c3ccc(C(=O)NC4CC4)cc3)n2n1)C1CCCC1 [Example 2-27]
30 | 5 nM | 50 to 500 nM |  |  | O=C(NC1CC1)c1ccc(-c2cnc3c(NCc4ccccn4)cc(NC4CCCCC4)nn23)cc1 [Example 2-154]
31 | 6.6 nM | 50 to 500 nM |  |  | O=C(NC1CC1)c1ccc(-c2cnc3c(NCc4ccc(F)cc4)cc(NC4CCCCC4)nn23)cc1 [Example 2-134]
32 | 5.6 nM | 50 to 500 nM |  |  | O=C(NC1CC1)c1ccc(-c2cnc3c(NCC4CCOCC4)cc(NC4CCC4)nn23)cc1 [Example 2-25]
33 | 3.9 nM | 50 to 500 nM |  |  | CC1(Nc2cc(NCC3CCOCC3)c3ncc(-c4ccc(C(=O)NC5CC5)cc4)n3n2)CCS(=O)(=O)C1 (stereo not drawn) [Example 2-72]
34 | 6.4 nM | ≤ 50 nM |  |  | O=C(NC1CC1)c1ccc(-c2cnc3c(NCC4CCOCC4)cc(Oc4cccc(F)c4)nn23)cc1 [Example 2-106]
35 | 4 nM | ≤ 50 nM |  |  | CC(C)(C)CC(C)(C)Nc1cc(NCC2CCOCC2)c2ncc(-c3ccc(C(=O)NC4CC4)cc3)n2n1 [Example 2-81]
36 | 10.5 nM | 50 to 500 nM |  |  | CC(C)CCNc1cc(NC2CCCCC2)nn2c(-c3ccc(C(=O)NC4CC4)cc3)cnc12 [Example 2-139]
37 | 3.9 nM | 50 to 500 nM |  |  | CC(C)CN(CC(F)(F)F)c1cc(NCC2CCOCC2)c2ncc(-c3ccc(C(=O)NC4CC4)cc3)n2n1 [Example 2-32]
38 | 2.9 nM | 50 to 500 nM |  |  | O=C(NC1CC1)c1ccc(-c2cnc3c(NCC4CCOCC4)cc(Oc4cccc(O)c4)nn23)cc1 [Example 2-110]
39 |  |  | 7.1 nM | 50 to 500 nM | O=C(NC1CC1)c1ccc(-c2cnc3c(NCC4CCOCC4)cc(CC4CCCCC4)nn23)cc1 [Example 2-208]
40 |  |  | 12.2 nM | 1000 to 10000 nM | O=C(NC1CC1)c1ccc(-c2cnc3c(NCC4CCOCC4)cc(OC4CCNCC4)nn23)cc1 [Example 2-180]
41 |  |  | 4.3 nM | ≤ 50 nM | O=C(NC1CC1)c1ccc(-c2cnc3c(NCC4CCOCC4)cc(NC4CCCC4)nn23)cc1Cl [Example 2-230]
42 | 3.7 nM | 50 to 500 nM |  |  | CN(c1cc(NCC2CCOCC2)c2ncc(-c3ccc(C(=O)NC4CC4)cc3)n2n1)C1CCCC1 [Example 2-28]
